Source: patent publication US20240103005A1, “N-ACRYLOYLINDOLES AND METHODS OF USE” (The University of Hong Kong, priority 2022, published 2024)
“Also recorded” adds a separate entry of the source.

How the values were obtained:
[1] = Selectivity for reacting with Cys over other amino acids (LC-MS); type: physicochemical; details: compound 10 μM, amino acid 30 μM (3 equiv.), 30 min, PBS/MeOH 4:1
Procedure: Selectivity of NAI for Reacting with Cys Over Other Amino Acids
Stock solution of NAIA-4 and NAIA-5, respectively, in DMSO was diluted by PBS/MeOH solution mixture (4:1, v/v; 500 μL), reaching final concentration of 10 μM. Stock solution of amino acid in DMSO was then freshly prepared, and added to the compound solution at final concentration of 30 μM. The solution mixture was incubated at room temperature for 30 min. After that, an aliquot of the reaction mixture (10 μL) was sent for LC-MS analysis. Selected ion chromatograms, with m/z=325 corresponding to [NAIA-4+H]^+ or [NAIA-5+H]^+, were extracted and analyzed by integrating the area under curve.
As fast-reacting probes are often susceptible to hydrolysis, we sought to investigate the aqueous stability of NAIA-C5 amide. […] Taking the excellent reaction kinetics and a mere 14% degradation in 30 min into account, NAIA-C5 amide was considered to be a useful tool in cysteine profiling (FIG. 17C and FIG. 17F).

[2] = Reaction kinetics of cysteine-reactive compounds with N-acetyl-L-cysteine methyl ester (LC-MS); type: physicochemical
Procedure: Reaction Kinetics of Cysteine-Reactive Compounds with N-Acetyl-L-Cysteine Methyl Ester
Stock solution of cysteine-reactive compound in DMSO was diluted by PBS/MeOH solution mixture (4:1, v/v; 500 μL), reaching final concentration of 10 μM. Stock solution of N-acetyl-L-cysteine methyl ester in DMSO was then freshly prepared, and added to the compound solution at final concentration of 250 μM. The solution mixture was incubated at room temperature, and at predetermined time intervals, an aliquot of the reaction mixture (10 μL) was sent for LC-MS analysis on Waters Autopurification System using a SunFire C18 HPLC column (50×4.6 mm with 5 μm diameter particles, Waters). Separation was achieved by gradient elution from 5% to 100% MeCN in water (constant 0.1 vol % formic acid) over 4 min, isocratic elution with 100% MeCN (with 0.1 vol % formic acid) from 4 to 8 min, and returning to 5% MeCN in water (with 0.1 vol % formic acid) and equilibrated for 2 min. Selected ion chromatograms, with m/z corresponding to the molecular ion of the compound and/or the adduct, were extracted and the data was analyzed using MassLynx™ software by calculating the area under the curve. The peak area was then calibrated to concentration of the compound/adduct by a set of solution mixtures containing known concentrations of the compound/adduct.
The reactivity of NAIA with cysteine in aqueous buffer solution has been investigated by LC-MS experiments (FIGS. 1A-1J). […] Upon addition of N-acetylcysteine methyl ester (250 μM), NAIA-5 reacted quickly and completely with N-acetylcysteine methyl ester within […], as reflected by the diminishment of the peak of NAIA-5 at t=6.20 min with a concomitant growth of a new peak at t=5.60 min in the LC, which is attributable to the cysteine adduct of NAIA-5 based on the MS (FIGS. 1B-1G). […] This highlights the important contribution of aromaticity of indole scaffold to increase electrophilicity of acrylamide warhead for fast and complete cysteine reaction in aqueous buffer solution.
Next, we monitored the reaction between NAIA-amide (10 μM) and N-acetylcysteine methyl ester (250 μM) by LC-MS analysis (FIG. 17A). Complete conversion of NAIA-C5 amide was observed within 40 s as indicated by the disappearance of NAIA-C5 amide peak (t=5.09 min) and emergence of the adduct peat (t=4.80 min) in the LC trace (FIG. 17B). Likewise, the reaction of NAIA-C4 amide proceeded with fast kinetics and was completely consumed in 1 min (FIG. 17C). The calculated rate constant of NAIA-C5 amide and NAIA-C4 amide were 2-fold and 1.2-fold faster than NAIA (FIG. 17D). […] Owning to the excellent reaction rate of NAIA-C5 amide, it was taken forward for further comparative analysis in subsequent experiments.

HepG2 cells [3] = assay: MTT cell viability assay; type: cell-based
Procedure: MTT Cell Viability Assay of Cells Treated with NAIA-5
HepG2 cells were plated on 96-well plates (Corning, 3904) at 30,000 cells per well in 100 μL of complete medium and allowed to grow overnight. The cells were then incubated with DMSO solvent control or NAIA-5 at indicated concentrations for 1 h. The treated cells were then added with 10 μL of MTT solution in PBS (5 mg/mL) and incubated in dark at 37° C. with 5% CO2 for 4 h. After that, 100 μL of SDS solution in PBS ([…] with 0.01M HCl) was added for cell lysis. The plates were kept in dark overnight and cell viability were assayed by the absorption at 580 nm on Perkin Elmer Victor 3 ([…]).

HepG2 cells [4] = assay: Gel-based ABPP, Cys labeling in live HepG2 cells; type: cell-based; details: 10 μM, three incubation time intervals
Procedure: In-Gel Fluorescence for Visualizing Cys Labeling by NAIAs and IAA in Live Cells
231MFP or HepG2 cells were grown in 10-cm plates in complete medium. At ca. 80% confluency, the cells were treated with DMSO solvent control, NAIA-4, NAIA-5, or IAA at indicated concentrations in complete medium for indicated time interval. The cells were then washed by DPBS and lysed by probe sonication in DPBS. Cell debris were removed by centrifugation at 1,000 g for 5 min. Protein concentration of the lysates was determined by BCA assay, and the lysates were diluted to 2 mg/mL by DPBS. 50 μL of the lysates were labeled with azide-fluor 545 by CuAAC according to the procedures described above. The samples were then added with 4× reducing Laemmli SDS sample loading buffer, boiled at 90° C. for 5 min, and separated by molecular weight on precast 4-20% TGX gels and scanned by ChemiDoc MP for measuring in-gel fluorescence. After that, the gel was stained with SimplyBlue™ SafeStain as described above, washed and scanned by ChemiDoc MP for imaging the blue staining.
In view of the success in labeling cysteines in cell lysates, we then proceeded to apply NAIA for capturing reactive cysteines in live cells. […] After protein assay and normalization, the protein samples were subjected to click reaction with azide-fluor 545, followed by SDS-PAGE and in-gel fluorescence measurement. […]

[5] = compound 10 μM, N-Ac-Cys-OMe 250 μM, PBS/MeOH 4:1

Compound	selectivity toward cysteine over other amino acids [1]	reaction kinetics with cysteine (k) ([2]; FIG. 7 legend summary)	cysteine reaction rate (in words) ([2]; compound 10 μM, N-Ac-Cys-OMe 250 μM)	compound left unreacted [2, 5]	cellular toxicity (in words) (HepG2 cells [3]; 10 μM for 1 h)	IC50 (HepG2 cells [3]; MTT, 1 h incubation, read-out: IC50 (cytotoxicity))	cell viability (in words) (HepG2 cells [3]; treatment for 1 h)	cysteine labeling in live cells (in-gel fluorescence) compared with IAA (HepG2 cells [4])	time to complete reaction with N-acetylcysteine methyl ester [2, 5]
C#CCCCCNC(=O)CI [IAA, N-Hex-5-ynyl-2-iodoacetamide, reference compound]	undesired reactivity with serine and lysine	~10^0 M^−1 s^−1	react much slower with cysteine than our NAIAs	more than 40%	–	–	–	–	–
C#CCCCCNC(=O)COc1ccc2c(ccn2C(=O)C=C)c1 [NAIA-5]	excellent selectivity toward cysteine over other amino acids; also recorded: Significant decreases in NAIA-4 and NAIA-5 levels were only found in the solution mixture with N-acetyl-L-cysteine methyl ester	–	–	–	no significant cellular toxicity was found	> 40 µM	no significant changes in viability of HepG2 cells	better cysteine labeling than IAA at 10 μM for all the three incubation time intervals	≤ 300 s
